Where two headings read alike, the source gives them in different places.
Assays:
[1] = molecular target: T1, α-glucosidase type 1 from Saccharomyces cerevisiae (Saccharomyces cerevisiae, UniProt P53341); experiment: biochemical; assay type: biochemical; conditions: for selectivity index (SI = IC50(α-glucosidase)/IC50(α-amylase)): ratio of α-glucosidase to α-amylase IC50
T1 construct: purchased Merck Life Science (Pty) Ltd. (Sigma-Aldrich) G5003
Protocol: The assays and analyses were performed in triplicates following a method described in a previous study. […] A solution of α-glucosidase type 1 from Saccharomyces cerevisiae (0.48 u/mL, 17 μL), 100 mM phosphate buffer (pH 6.8; 50 μL) and the test sample in DMSO (17 μL) were incubated at 37 °C for 10 min. This pre-incubation was followed by addition of 2 mM p-nitrophenyl-α-D-glucopyranoside (PNP-G, 17 μL) to each of the wells containing reaction mixtures to initiate the reaction. The plate was then incubated for 30 min. at 37 °C. The five absorbance readings were recorded at a wavelength of 405 nm for each triplicate run using a Varioskan flash microplate spectrophotometer (Thermo Scientific, Waltham, MA, USA). The average values obtained from the readings were used to determine the IC50 and standard deviation values. The values were calculated by the nonlinear regression analysis using the Graph Pad Prism version 8.0.1 software (San Diego, CA, USA) and expressed as the mean SD of three distinct experiments.

[2] = Nitric oxide (NO) free radical scavenging assay (Griess reagent); conditions: mean ± SD; 1-50 μM
Protocol: Different concentrations (1, 5, 10, 25 and 50 μM) of the test compounds and quercetin (reference standard) were prepared in DMSO. A mixture of the compound (5 μL), 10 mM sodium nitroprusside (20 μL) and the phosphate buffer (5 μL) were incubated at 25 °C in a 96-well plate. The plate was incubated for 2.5 h at 25 °C followed by the addition of the Griess reagent (1.00 g of sulphanilic acid + 0.10 g naphthylethylene diamine dihydrochloride, 20 μL). The mixtures were allowed to stand for 30 min. […] The IC50 and SD values were calculated using the Graph Pad Prism software.

α-amylase = molecular target: T2, α-amylase (Homo sapiens, UniProt P04746); experiment: In vitro α-amylase inhibitory assay (α-Amylase Inhibitor Screening Kit); assay type: biochemical; conditions: mean ± SD, triplicate; 1-50 μM
T2 construct: purchased Abcam ab283391
T2 sequence (P04746 16-511): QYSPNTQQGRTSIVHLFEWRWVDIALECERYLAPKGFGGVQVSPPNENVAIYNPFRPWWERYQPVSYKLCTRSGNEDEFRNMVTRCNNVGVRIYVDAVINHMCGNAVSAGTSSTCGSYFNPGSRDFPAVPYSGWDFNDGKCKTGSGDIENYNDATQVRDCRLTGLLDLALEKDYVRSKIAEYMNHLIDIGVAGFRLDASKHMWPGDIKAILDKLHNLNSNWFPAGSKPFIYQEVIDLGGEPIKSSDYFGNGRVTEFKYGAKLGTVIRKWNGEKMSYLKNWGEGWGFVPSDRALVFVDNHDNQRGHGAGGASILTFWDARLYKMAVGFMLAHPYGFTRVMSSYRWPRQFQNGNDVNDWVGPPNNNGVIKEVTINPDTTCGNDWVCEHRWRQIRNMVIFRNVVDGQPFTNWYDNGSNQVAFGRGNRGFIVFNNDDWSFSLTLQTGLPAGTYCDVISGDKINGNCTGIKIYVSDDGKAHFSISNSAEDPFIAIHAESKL
Protocol: The mixtures were incubated at 37 °C for 10 min. and the substrate prepared in the same fashion as the enzyme was added to the mixtures to initiate the reaction. The plate was then incubated at RT for 25 min. in the dark. Five different absorbance readings were recorded for each triplicate run at a wavelength of 405 nm using a Varioskan flash microplate spectrophotometer (Thermo Scientific, Waltham, MA, USA). The IC50 and SD values were calculated using the Graph Pad Prism software.

Vero cells = experiment: Cytotoxicity, CellTiter-Blue cell viability assay; assay type: cell-based, African green monkey (Cercopithecus aethiops); conditions: 24 h treatment, 1-100 μM
Protocol: (§1) The cells were maintained in Dulbecco’s Modified Eagle’s Medium (DMEM, Gibco, Carlsbad, CA, USA) supplemented with 10% fetal bovine serum (FBS) and 1% penicillin/streptomycin in culture flasks and incubated at 37 °C in 5% CO2. When the cells reached 85% confluency, they were detached using 2% trypsin. The cell count was performed using a hand-held automated cell counter (Scapter 3.0™, Merck, Burlington, MA, USA) and then seeded at 1 × 10^5 cells/well. The well-plates were incubated overnight to allow cell attachment. After 24 h, treatments were administered with different concentrations (1, 5, 10, 25, 50 and 100 μM) of the test compounds and the positive controls (quercetin and nintedanib). The mixtures were incubated for another 24 h and then 20 μL of the CellTiter-Blue (Cytek Biosciences, San Diago, CA, USA) solution (5 mg/mL) was added to all the wells. Fluorescence was measured at 560 nm excitation/590 nm emission using an Elisa microplate reader (ThermoFisher Scientific, Vario SkanFlash, Vantaa, Finland). The cell viability of the triplicate results was calculated using the GraphPad Prism software (Version 8, GraphPad Software Inc., San Diego, CA, USA) to fit the nonlinear regression dose–response curves to obtain the IC50 and standard deviation values.

A549 cells = experiment: Cytotoxicity, CellTiter-Blue cell viability assay; assay type: cell-based, human; conditions: 24 h treatment, 1-100 μM
Protocol: as §1

MCF-7 cells = experiment: Cytotoxicity, CellTiter-Blue cell viability assay; assay type: cell-based, human; conditions: 24 h treatment, 1-100 μM
Protocol: as §1

[3] = Metal ion chelation assay (UV-Vis spectrophotometry); assay type: physicochemical; conditions: 60 μM in methanol with CuCl2, RT
Protocol: A solution of the test compound in methanol alone (60 μM, final concentration) or in the presence of CuCl2 or ZnCl2 was stirred at RT for 30 min. The absorption spectra were recorded at RT at wavelengths ranging from 200 to 600 nm using a Shimadzu UV/Vis spectrometer, model: UV-1800 240V (Shimadzu Europa GmbH, Albert-Han Strasse 6-10, 47269 Duisburg, Germany).

[4] = mean ± SD, triplicate, 1-50 μM, read-out: IC50 α-Glucosidase
[5] = Chlorocebus sabaeus, Vero, 24 h

T1 sequence (P53341 whole entry): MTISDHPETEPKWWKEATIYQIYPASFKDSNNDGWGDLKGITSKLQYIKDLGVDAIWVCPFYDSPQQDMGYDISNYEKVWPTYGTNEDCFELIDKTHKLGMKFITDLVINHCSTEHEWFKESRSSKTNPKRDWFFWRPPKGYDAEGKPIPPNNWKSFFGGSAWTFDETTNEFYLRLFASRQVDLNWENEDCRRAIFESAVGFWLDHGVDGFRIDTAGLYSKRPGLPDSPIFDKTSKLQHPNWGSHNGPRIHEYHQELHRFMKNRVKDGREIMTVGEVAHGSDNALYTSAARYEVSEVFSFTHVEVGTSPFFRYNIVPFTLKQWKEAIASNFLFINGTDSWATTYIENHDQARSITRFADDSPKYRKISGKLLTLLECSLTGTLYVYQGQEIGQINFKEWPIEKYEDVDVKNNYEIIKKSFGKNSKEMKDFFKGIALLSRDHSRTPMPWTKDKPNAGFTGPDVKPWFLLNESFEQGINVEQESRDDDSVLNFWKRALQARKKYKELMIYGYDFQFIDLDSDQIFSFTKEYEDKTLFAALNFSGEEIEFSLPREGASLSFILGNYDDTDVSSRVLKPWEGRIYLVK

| Structure (SMILES) | IC50 [1, 4] | melting point | IC50 [2] | IC50 (α-amylase) | IC50 (Vero cells; [5]) | IC50 [1] | IC50 (A549 cells; Homo sapiens, A549, 24 h) | IC50 (MCF-7 cells; Homo sapiens, MCF7, 24 h) | also measured |
| --- | --- | --- | --- | --- | --- | --- | --- | --- | --- |
| COc1ccc(-c2cc(=O)c3c(OC)c(Br)c(OC)c(Br)c3o2)cc1 [3d, 6,8-Dibromo-5,7-dimethoxy-2-(4-methoxyphenyl)-4H-chromen-4-one] | 15.2 ± 0.002 µM | 233 to 236 °C | 5.3 ± 0.005 µM | – | – | – | – | – | – |
| COc1c(Br)c(O)c(C(=O)/C=C/c2ccc(Cl)cc2)c(OC)c1Br [2c, (E)-1-(3,5-Dibromo-2-hydroxy-4,6-dimethoxyphenyl)-3-(4-chlorophenyl)prop-2-en-1-one] | – | 150 to 152 °C | 28 ± 0.003 µM | 18 ± 0.06 µM | 20.3 ± 1.01 µM | 12.3 ± 0.003 µM | 9.68 ± 0.8 µM | 15.1 ± 0.91 µM | selectivity index (SI = IC50(α-glucosidase)/IC50(α-amylase)) [1]: 0.68 |
| COC(=O)c1ccc2c(c1)NC(=O)/C2=C(\Nc1ccc(N(C)C(=O)CN2CCN(C)CC2)cc1)c1ccccc1 [Nintedanib, reference compound] | – | – | – | – | 0.89 ± 0.18 µM | – | 0.74 ± 0.15 µM | 0.53 ± 0.11 µM | – |
| COc1c(Br)c(O)c(C(=O)/C=C/c2ccc(C(C)C)cc2)c(OC)c1Br [2f, (E)-1-(3,5-Dibromo-2-hydroxy-4,6-dimethoxyphenyl)-3-(4-isopropylphenyl)prop-2-en-1-one] | – | 128 to 130 °C | 17.4 ± 0.015 µM | – | – | 23.6 ± 0.1 µM | – | – | – |
| COc1c(Br)c(OC)c2c(=O)cc(-c3ccc(C(C)C)cc3)oc2c1Br [3f, 6,8-Dibromo-5,7-dimethoxy-2-(4-isopropylphenyl)-4H-chromen-4-one] | 5.6 ± 0.006 µM | 165 to 167 °C | 12.1 ± 0.07 µM | 28 ± 0.06 µM | 11.7 ± 1.02 µM | – | 16.1 ± 1.15 µM | 10.7 ± 1.02 µM | selectivity index (SI = IC50(α-glucosidase)/IC50(α-amylase)) [1]: 0.2 |
| COc1c(Br)c(O)c(C(=O)/C=C/c2ccc(C)cc2)c(OC)c1Br [2e, (E)-1-(3,5-Dibromo-2-hydroxy-4,6-dimethoxyphenyl)-3-(p-tolyl)prop-2-en-1-one] | – | 151 to 152 °C | – | – | – | 27.4 ± 0.02 µM | – | – | – |
| COc1c(Br)c(OC)c2c(=O)cc(-c3ccc(F)cc3)oc2c1Br [3b, 6,8-Dibromo-2-(4-fluorophenyl)-5,7-dimethoxy-4H-chromen-4-one] | 19.5 ± 0.005 µM | 288 to 289 °C | 5.4 ± 0.002 µM | – | – | – | – | – | – |
| COc1c(Br)c(OC)c2c(=O)cc(-c3ccccc3)oc2c1Br [3a, 6,8-Dibromo-5,7-dimethoxy-2-phenyl-4H-chromen-4-one] | – | 216 to 218 °C | – | – | 12.4 ± 0.97 µM | 14.2 ± 0.005 µM | 16.2 ± 0.91 µM | 8.5 ± 0.82 µM | IC50 (Vero cells): 16.2 ± 0.91 µM; IC50 (A549 cells): 12.4 ± 0.97 µM |
| COc1c(Br)c(OC)c2c(=O)cc(-c3ccc(C)cc3)oc2c1Br [3e, 6,8-Dibromo-5,7-dimethoxy-2-(p-tolyl)-4H-chromen-4-one] | 10.9 ± 0.007 µM | 205 to 206 °C | 13.3 ± 0.08 µM | 25.4 ± 0.04 µM | 9.45 ± 0.79 µM | – | 6.42 ± 0.79 µM | 6.96 ± 0.66 µM | – |
| O=c1c(O)c(-c2ccc(O)c(O)c2)oc2cc(O)cc(O)c12 [Quercetin, reference compound] | – | – | 4.8 ± 0.01 µM | – | – | – | – | – | IC50 (Vero cells; Chlorocebus sabaeus, Vero): 45.6 ± 1.8 µM; IC50 (A549 cells; Homo sapiens, A549): 35.4 ± 1.78 µM; IC50 (MCF-7 cells; Homo sapiens, MCF7): 35.4 ± 1.78 µM |
| COc1c(Br)c(O)c(C(=O)/C=C/c2ccc(F)cc2)c(OC)c1Br [2b, (E)-1-(3,5-Dibromo-2-hydroxy-4,6-dimethoxyphenyl)-3-(4-fluorophenyl)prop-2-en-1-one] | 7.3 ± 0.004 µM | 132 to 134 °C | 6.5 ± 0.005 µM | 6.5 ± 0.07 µM | 25 ± 1.09 µM | – | 18.7 ± 0.89 µM | 12.1 ± 0.72 µM | selectivity index (SI = IC50(α-glucosidase)/IC50(α-amylase)) [1]: 1.12 |
| COc1ccc(/C=C/C(=O)c2c(O)c(Br)c(OC)c(Br)c2OC)cc1 [2d, (E)-1-(3,5-Dibromo-2-hydroxy-4,6-dimethoxyphenyl)-3-(4-methoxyphenyl)prop-2-en-1-one] | – | 155 to 158 °C | 9.5 ± 0.004 µM | – | – | 16.3 ± 0.02 µM | – | – | – |
| COc1c(Br)c(O)c(C(=O)/C=C/c2ccccc2)c(OC)c1Br [2a, (E)-1-(3,5-Dibromo-2-hydroxy-4,6-dimethoxyphenyl)-3-phenylprop-2-en-1-one] | – | 106 to 108 °C | 11 ± 0.01 µM | 7.3 ± 0.11 µM | 6.04 ± 0.54 µM | 14.5 ± 0.01 µM | 7.4 ± 0.67 µM | 4.12 ± 0.55 µM | selectivity index (SI = IC50(α-glucosidase)/IC50(α-amylase)) [1]: 1.99 |
| COc1c(Br)c(OC)c2c(=O)cc(-c3ccc(Cl)cc3)oc2c1Br [3c, 6,8-Dibromo-2-(4-chlorophenyl)-5,7-dimethoxy-4H-chromen-4-ONE] | 0.8 ± 0.002 µM | 280 to 283 °C | 4.7 ± 0.02 µM | – | – | – | – | 6.96 ± 0.66 µM | coordination of Cu^2+ (change of UV-Vis maxima) [3]: some coordination of 3c to the copper ion; IC50 (MCF-7 cells): 5.1 ± 0.61 µM |

Source: paper PMC11505200, “Exploring the 3,5-Dibromo-4,6-dimethoxychalcones and Their Flavone Derivatives as Dual α-Glucosidase and α-Amylase Inhibitors with Antioxidant and Anticancer Potential” (Antioxidants, 2024)
